Laboratory results as given in US20250049754A1, “COMPOSITIONS COMPRISING UROLITHIN FOR TREATING MUSCLE DECLINE AND A KIDNEY DYSFUNCTION” (SOCIETE DES PRODUITS NESTLE S.A., priority 2021, published 2025).

How the values were obtained:
Format in all cases: in vivo
db/db mouse [1] = assay: Muscle mass of tibialis anterior and quadriceps by weighing in db/db mice; conditions: 50 mg/kg/day oral gavage, 10 weeks, vs db/db+V group
Experimental: The muscle mass of the tibialis anterior was measured by weighing on a precision scale. […] The muscle mass of the quadriceps was measured by weighing on a precision scale. Mice were purchased from The Jackson Laboratory (Stock No: 000642) in order to obtain sizeable cohorts to run groups in tandem, which is crucial for reliable testing of mitochondrial function. Eight to nine week-old male db/db mice (n=15 per group) received Urolithin A by oral gavage (50 mg/kg/day) for a duration of 10 weeks. Db/m (control) or db/db (diabetic) mice were randomized to the following treatments: A suspension of 0.5% carboxymethylcellulose (CMC; Sigma #419303) was first prepared. Urolithin A (16.67 mg/ml) was prepared by dissolving in 0.5% CMC solution and left stirring at room temperature. Urolithin A was dosed at 50 mg/kg/day. The weights of the mice were used to calculate the dosage of Urolithin A to be administered to each mouse, based on weekly bodyweight measurements. Approximately 1001 of 0.5% CMC was given to mice daily in the vehicle groups. All analyses were performed by ANOVA followed by post hoc paired analysis using Tukey's least significant difference method, correcting for multiple comparisons. A value for p<0.05 was considered as statistically significant. […] Whole body composition including lean mass and fat mass were measured using EchoMRI at baseline, midpoint and endpoint. […]

db/db mouse [2] = assay: Kidney function in the db/db mouse model of type 2 diabetes: urine albumin (ELISA), urinary creatinine (Cobas Integra), 24-hour metabolic caging; conditions: db/db mice, 50 mg/kg/day oral gavage; for albumin/creatinine ratio: vs db/db+V group
Experimental: Creatinine was determined using a Cobas Integra autoanalyzer. Excretion of urine albumin was measured by ELISA kit.
Urinary creatinine was determined using a Cobas Integra autoanalyzer.
Excretion of urine albumin was measured by ELISA kit.
The renoprotective effects of Urolithin A were assessed in a mouse model of type 2 diabetes (the db/db mouse).
A mouse model of diabetes was used endorsed by the Diabetic Complications Consortium (DiabComp/AMDCC), the db/db mouse model, which is obese and insulin resistant “type 2”.
Mice were purchased from The Jackson Laboratory (Stock No: 000642) in order to obtain sizeable cohorts to run groups in tandem, which is crucial for reliable testing of mitochondrial function. Eight to nine week-old male db/db mice (n=15 per group) received Urolithin A by oral gavage (50 mg/kg/day) for a duration of 10 weeks. Db/m (control) or db/db (diabetic) mice were randomized to the following treatments:
A suspension of 0.5% carboxymethylcellulose (CMC; Sigma #419303) was first prepared. Urolithin A (16.67 mg/ml) was prepared by dissolving in 0.5% CMC solution and left stirring at room temperature. Urolithin A was dosed at 50 mg/kg/day. The weights of the mice were used to calculate the dosage of Urolithin A to be administered to each mouse, based on weekly bodyweight measurements. Approximately 1001 of 0.5% CMC was given to mice daily in the vehicle groups.
At baseline, mid-point and one week prior to euthanasia, mice underwent metabolic caging for 24 hours to collect urine and to measure food and water intake. Body composition by EchoMRI was performed at baseline, mid-point and two weeks prior to euthanasia to determine fat mass and lean body mass. At baseline and week 9, an oral glucose tolerance test was performed to assess glucose handling. Fasting plasma glucose was measured using a glucose colorimetric assay kit (Cayman, Ann Arbor, USA) at baseline, 15 min and 60 min after glucose treatment. Blood pressure measurements were performed at week 10.
All analyses were performed by ANOVA followed by post hoc paired analysis using Tukey's least significant difference method, correcting for multiple comparisons. A value for p<0.05 was considered as statistically significant. A Z-score of 2 was used to exclude outliers.
One week prior to cull, 24-hour metabolic caging was performed to collect urine, and blood was collected from the submandibular vein. Urine and plasma creatinine was determined using the Cobas Integra autoanalyzer. Urine albumin was measured by ELISA (Bethyl, USA). Blood pressure was determined by tail cuff plethysmography.
Excretion of albumin in the urine over a 24-hour period was measured by ELISA kit (Bethyl). At the endpoint of the study, there was a significant increase in albuminuria in db/db mice when compared to db/m mice. […] Creatinine clearance was calculated from urine and plasma creatinine measured using the Creatinine plus ver.2 (CREP2) assay on a Cobas Integra 400 plus autoanalyzer (Roche Diagnostics). There was a decline in kidney function in db/db mice (Diabetic) as measured by an increase in albuminuria and reduced creatinine clearance at 18-19 weeks of age. Treatment of UA delayed the progression of albuminuria in the db/db mice.

db/db mouse [3] = assay: Urinary carnosine, anserine and S-adenosylmethionine, semi-quantitative, HILIC chromatography and ESI-orbitrap mass spectrometry, in db/db mice; conditions: 50 mg/kg/day oral gavage, 10 weeks, vs db/db+V group
Experimental: Urinary carnosine was determined in a semi-quantitative manner using cold methanol:water:chloroform (5:3:5 (v/v)) extraction to separate the polar metabolites and apolar metabolites. In addition, a protein layer remained in the middle between the two phases. The polar phase was dried overnight in a vacuum centrifuge at 4° C. and 5 mbar, and was dissolved in 60 μl 60% (v/v) acetonitrile:water prior to analysis. The protein layer was quantified with a bicinchoninic acid (BCA) assay (ThermoFisher Scientific) and used for later normalization of the metabolite concentrations. Two microliters of each sample were injected into a hydrophilic interaction chromatography (HILIC) analytical column. The separation was achieved by applying a linear solvent gradient. As mobile phase, solvent A was H2O with 10 mM ammonium acetate (NH4Ac) and 0.04% (v/v) ammonium hydroxide (NH4OH), pH ˜9.3, and solvent B was acetonitrile (ACN). The eluting metabolites, including carnosine, were analyzed with an orbitrap mass spectrometer (Orbitrap Fusion Lumos Tribrid, Thermo Scientific) equipped with a heated electrospray ionisation (H-ESI) source. […]
Urinary anserine was determined in a semi-quantitative manner using cold methanol:water:chloroform (5:3:5 (v/v)) extraction to separate the polar metabolites and apolar metabolites. […] The protein layer was quantified with a bicinchoninic acid (BCA) assay (ThermoFisher Scientific) and used for later normalization of the metabolite concentrations. […] The eluting metabolites, including anserine, were analyzed with an orbitrap mass spectrometer (Orbitrap Fusion Lumos Tribrid, Thermo Scientific) equipped with a heated electrospray ionization (H-ESI) source. […]
Urinary S-adenosylmethionine was determined in a semi-quantitative manner using cold methanol:water:chloroform (5:3:5 (v/v)) extraction to separate the polar metabolites and apolar metabolites. […] The protein layer was quantified with a bicinchoninic acid (BCA) assay (ThermoFisher Scientific) and used for later normalization of the metabolite concentrations. […]

db/db mouse [4] = assay: Femur bone mass by weighing in db/db mice; conditions: 50 mg/kg/day oral gavage, 10 week treatment, vs db/db+V group
Experimental: The bone femur mass was determined by weighing on a precision scale. Mice were purchased from The Jackson Laboratory (Stock No: 000642) in order to obtain sizeable cohorts to run groups in tandem, which is crucial for reliable testing of mitochondrial function. Eight to nine week-old male db/db mice (n=15 per group) received Urolithin A by oral gavage (50 mg/kg/day) for a duration of 10 weeks. Db/m (control) or db/db (diabetic) mice were randomized to the following treatments: A suspension of 0.5% carboxymethylcellulose (CMC; Sigma #419303) was first prepared. Urolithin A (16.67 mg/ml) was prepared by dissolving in 0.5% CMC solution and left stirring at room temperature. Urolithin A was dosed at 50 mg/kg/day. The weights of the mice were used to calculate the dosage of Urolithin A to be administered to each mouse, based on weekly bodyweight measurements. Approximately 1001 of 0.5% CMC was given to mice daily in the vehicle groups. All analyses were performed by ANOVA followed by post hoc paired analysis using Tukey's least significant difference method, correcting for multiple comparisons. A value for p<0.05 was considered as statistically significant. A Z-score of 2 was used to exclude outliers. Left and right femur bones were collected at the end of study, after 10 week treatment, and both femurs were cleaned and snap frozen, weighed and stored at −80° C.

db/db mouse [5] = assay: Whole body composition (lean mass) by EchoMRI in db/db mice; conditions: 50 mg/kg/day oral gavage, 10 weeks, vs db/db+V group
Experimental: The lean mass of muscles was measured using EchoMRI. Mice were purchased from The Jackson Laboratory (Stock No: 000642) in order to obtain sizeable cohorts to run groups in tandem, which is crucial for reliable testing of mitochondrial function. Eight to nine week-old male db/db mice (n=15 per group) received Urolithin A by oral gavage (50 mg/kg/day) for a duration of 10 weeks. Db/m (control) or db/db (diabetic) mice were randomized to the following treatments: A suspension of 0.5% carboxymethylcellulose (CMC; Sigma #419303) was first prepared. Urolithin A (16.67 mg/ml) was prepared by dissolving in 0.5% CMC solution and left stirring at room temperature. Urolithin A was dosed at 50 mg/kg/day. The weights of the mice were used to calculate the dosage of Urolithin A to be administered to each mouse, based on weekly bodyweight measurements. Approximately 1001 of 0.5% CMC was given to mice daily in the vehicle groups. At baseline, mid-point and one week prior to euthanasia, mice underwent metabolic caging for 24 hours to collect urine and to measure food and water intake. […] Fasting plasma glucose was measured using a glucose colorimetric assay kit (Cayman, Ann Arbor, USA) at baseline, 15 min and 60 min after glucose treatment. […] Whole body composition including lean mass and fat mass were measured using EchoMRI at baseline, midpoint and endpoint.

## O=c1oc2cc(O)ccc2c2ccc(O)cc12 [UA, 3,8-dihydroxyurolithin]
db/db mouse [1]
  muscle mass of the quadriceps: significantly increased
  muscle mass of the tibialis anterior: significantly increased
db/db mouse [2]; 10 weeks, vs vehicle-treated group
  urinary creatinine: higher
db/db mouse [2]; after 5 weeks of treatment (midpoint)
  albumin/creatinine ratio: significantly decreased
db/db mouse [2]; after 10 weeks of treatment (endpoint)
  albumin/creatinine ratio: significantly decreased
db/db mouse [2]; at midpoint (5 weeks)
  albuminuria (24-hour urine albumin excretion): did affect albuminuria
db/db mouse [2]; baseline to 10 weeks, vs vehicle-treated counterparts
  progression of albuminuria: significantly delayed
db/db mouse [3]
  levels of urinary S-adenosylmethionine (SAM): significantly increased
  levels of urinary anserine: significantly increased
  levels of urinary carnosine: significantly increased
db/db mouse [4]
  femur bone mass: significantly increased
db/db mouse [5]
  lean mass: significantly increased
